Test results published in US20240376098A1, “METHODS OF TREATMENT USING BCN057, BCN077 AND ANALOGS” (BCN Biosciences L.L.C., priority 2021, published 2024).

Columns and labels:
Panc-1 cells = experiment: Time lapse microscope images of pancreatic cancer cells after drug; type: cell-based, human; conditions: 10 μM BCN057
Procedure: FIG. 2A is a group of images showing pancreatic cancer cell growth after treatment with 10 μM BCN057 at time 0, 15, 30, 60, 120 and 240 minutes.
Further, these doses span the concentrations found in plasma during efficacy studies in rodents. Subsequently, microscope images appeared to show cell blebbing and fragmentation shortly after application of BCN057 indicating possible apoptosis. […] Blebbing and cell fragmentation was noted within 20 min of incubation with drug (as shown with the arrows). Cell fragmentation was seen between 20-30 minutes after exposure to the drug.

GSK3b = biological target: T1, GSK3b (Homo sapiens, UniProt P49841); experiment: Western blot of GSK3b phosphorylation at S-9 in Panc1 cells; type: cell-based; conditions: 10 μM BCN057, over time
T1 construct: endogenous in cells; host or cells: Panc-1
T1 sequence (P49841 whole entry): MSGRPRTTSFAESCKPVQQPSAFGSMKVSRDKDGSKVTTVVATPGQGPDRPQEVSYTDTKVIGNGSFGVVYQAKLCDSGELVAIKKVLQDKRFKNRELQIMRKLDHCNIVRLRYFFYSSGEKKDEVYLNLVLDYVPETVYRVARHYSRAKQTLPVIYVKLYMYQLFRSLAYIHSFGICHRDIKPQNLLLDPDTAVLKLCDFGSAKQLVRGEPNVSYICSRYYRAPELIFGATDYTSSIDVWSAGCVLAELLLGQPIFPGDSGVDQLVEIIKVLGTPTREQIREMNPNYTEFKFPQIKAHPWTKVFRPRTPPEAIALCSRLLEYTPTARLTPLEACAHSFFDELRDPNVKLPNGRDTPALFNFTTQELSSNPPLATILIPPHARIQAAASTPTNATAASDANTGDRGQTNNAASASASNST
Procedure: (§1) Western Blot: Cells were harvested and lysed in cell lysis buffer on ice for 15 minutes and the lysate was centrifuged at 13,000 rpm at 4° C. for 10 minutes. The supernatant was transferred into a new tube for BCA protein quantification assay (Thermo Fisher Scientific) and the samples were normalized. 3× loading buffer (Cell Signaling) was added the protein sample and boiled for 5 minutes. The samples were used for SDS-PAGE analysis and transferred to nitrocellulose membrane. The membrane was blocked with 5% BSA at room temperature for 1 hour and incubated with primary antibody at 4° C. overnight. The membrane was washed with 1×TBST 5 minutes for 3 times and incubated with horseradish peroxidase-conjugated secondary antibody for 1 hour at room temperature. The protein was visualized by SuperSignal West Pico Stable Peroxide Solution (Thermo Fisher Scientific). The blot was visualized by chemiluminescence using a BioRad Versadoc Imaging System.
To investigate the role BCN057 may have in the restoration of apoptosis in this cell line, the GSK3b-c-Jun relationship was assessed as it has been directly linked to apoptosis. Others have reported a link with GSK3b and c-Jun and apoptosis along with the fact that […] is over expressed in the oncogenic KRAS phenotype.

PTEN = experiment: Western blot of PTEN protein expression in Panc-1 cells; type: cell-based, human; conditions: 10 μM, 20 minutes to 24 hours
Procedure: as §1, with “System. In KRAS dependent tumors, c-Jun acts to suppress Phosphatase and tensin homolog (PTEN) expression at the promoter level and that suppression of PTEN expression is essential for anti-apoptosis and cellular transformation by oncogenic RAS. Thus, we investigated PTEN expression levels in response to BCN057. […] FIG. 4A is a western blot of Phospho-c-Jun (T-91/93). […] Phosphorylation of c-Jun at T-91/93 is known to induce apoptosis. […]” for “System.”

[1] = tested on: LGR5 and BMI1 in Panc-1 cells; experiment: qPCR of stem cell markers LGR5 and BMI1 in Panc-1 cells; type: cell-based, human; conditions: 10 μm
Procedure: QPCR: To compare the mRNA levels of BMI1 and LGR5 target genes in Panc-1 cells treated with BCN057 or vehicle. Quantitative PCR (qPCR) was used to measure the expression of the stem cell markers LGR5, and BMI1 which was detected by real-time PCR using the primer pairs listed in Table 1. Total RNA was extracted using TRIzol kit (Invitrogen, CA, USA)
Primers used for qPCR of LGR5 and BMI1 in pancreatic cancer cells Panc-1 treated with 10 μM of BCN057 or vehicle.
Others have implemented BMI1 as a key contributor to chemoresistance and invasiveness which is measurable in Panc-1.

Lgr5+ ISCs = experiment: Lgr5+ intestinal stem cells in 5FU treated Lgr5-Cre-ERT-GFP mice; type: in vivo; conditions: 5FU treated mice receiving BCN057
Procedure: 5FU is a component of FOLFIRINOX and the active agent metabolized from Capecitabine (Xeloda®). To, examine the effect of BCN057 against chemo induced toxicity in Lgr5+ ISCs, Lgr5-Cre-ERT-GFP mice were pre-treated with 5FU as reported and then subjected to BCN057 treatment.
Stains of GI crypts with green=LGR5+ stem cells. Mice were treated with 5FU and 5FU+BCN057 for 5 days. BCN057 was administered for two extra days after 5FU treatment. Small intestine samples were harvested and stained for LGR5 at 3 days after the last 5FU injection. FIG. 5D is a histogram of the quantitation by % of LGR5+ cells remaining in […] sections at the crypt base showing prevention of 5-FU induced apoptosis in LGR5+ stem cells in GI.

COc1ccc2cc(-c3nc4ccc(C)cn4c3NCc3ccco3)c(=O)[nH]c2c1 [BCN057, 3-[(Furan-2-ylmethyl)-amino]-2-(7-methoxy-2-oxo-1,2-dihydro-quinolin-3-yl)-6-methyl-imidazo[1,2-a]pyridin-1-ium]
Time at which cell fragmentation was seen after exposure (Panc-1 cells): 20 to 30 min
Time to blebbing and cell fragmentation (Panc-1 cells): ≤ 20 min
GSK3b phosphorylation at S-9 (GSK3b): rapid induction of phosphorylation at S-9
PTEN protein expression (PTEN): increased expression up to 1 hr of PTEN protein
Abundance of LGR5 and BMI1 cell populations [1]: no significant increase in the abundance
Lgr5+ve ISCs in jejunal section (Lgr5+ ISCs): significant presence of Lgr5+ve ISCs
